Counter-ions that a name gives are not always drawn. Like-named read-outs stand apart in the source and are kept apart here.
Tests used:
Format in all cases: biochemical
[1] = target: Falcipain-2 (Plasmodium falciparum, UniProt Q8I6U4); experiment: Falcipain-2 enzymatic assay (assay 1)
Description: (§1) Assay 1) Determination of Falcipain-2, Falcipain-3, Vivapain-2, Cathepsin K Cathepsin S, Cathepsin L, and Cathepsin B Proteolytic Catalytic Activity
(§2) Assays for Falcipain-2, Falcipain-3, and Vivapain-2 are carried out with parasitic recombinant enzymes. Cathepsins K, S, L, and B are carried out with human recombinant enzymes. Standard assay conditions for the determination of kinetic constants used a fluorogenic peptide substrate, typically H-D-VLR-AFC (Falcipain-2, Falcipain-3, Vivapain-2), Z-FR-AFC (Cathepsin K, L, B), or KQKLR-AMC (Cathepsin S) and are determined in 100 mM sodium acetate, pH 5.5, containing 10 mM DTT and 0.5 mM CHAPS (Falcipain-2, Falcipain-3, Vivapain-2), and 100 mM sodium acetate, pH 5.5, containing 5 mM L-cysteine, 1 mM CHAPS and 5 mM EDTA (Cathepsin K, L, B), or 50 mM MES, pH 6.5, containing 0.5 mM CHAPS, 10 mM L-CYS, 5 mM EDTA (Cathepsin S). Stock substrate solutions are prepared at 20 mM in DMSO. The activity assays contained 30 uM substrate (Falcipain-2, Falcipain-3, Vivapain-2), 20 uM substrate (Cathepsin K), 25 uM substrate (Cathepsin B), 5 uM substrate (Cathepsin L), and 30 uM substrate (Cathepsin S). All assays contained 1% DMSO. […] All assays are conducted at ambient temperature as end point assays being quenched after 60 minutes with the exception of Cathepsin S at 90 minutes, with 16.6 uM E-64 in 1% DMSO. Product formation (AFC or AMC) is determined from fluorescence (excitation at 405 nm; emission at 530 nm, AFC, or excitation at 360 nm; emission at 460 nm, AMC) monitored with a LJL Aquest (Molecular Devices) fluorescent plate reader. In the case of kinetic reads (used in mechanism of action studies), the reaction is not quenched but is read in the plate reader every 3 minutes for approximately 90 minutes. In addition, the mechanism of action studies for Falcipain-2 utilize Z-LR-AMC as the substrate. Product formation is determined from the fluorescence of AMC, measured with a LJL Acquest (Molecular Devices) fluorescent plate reader (excitation at 360 nm; emission at 460 nm).
(§3) Potential inhibitors are evaluated using the quenched read (endpoint) method. Assays are carried out in the presence of variable concentrations of test compound. Reactions are initiated by addition of enzyme and substrate to wells containing inhibitor stamped in 100% DMSO. For endpoint assays, the reaction is quenched with the addition of E64. Dose response data is fit to an IC50 curve with preset fitting tools according to equation 1:
(§4) y=a+(b−a)/(1+(10^x/10^c)^d) (1)
(§5) where y is the response at a particular inhibitor concentration x, a is the minimum response value, b is the maximum response value, c is the IC50, and d is the slope of the IC50 curve. Assuming the compound is a competitive inhibitor, the apparent KI can be calculated from IC50, as shown in equation 2: […]

[2] = target: Falcipain-3 (Plasmodium falciparum, UniProt Q8IIL0); experiment: Falcipain-3 enzymatic assay (assay 1)
Description: as §1, §2, §3, §4, §5

[3] = target: Cathepsin S (Homo sapiens, UniProt P25774); experiment: Cathepsin S enzymatic assay (assay 1); conditions: human recombinant enzyme, KQKLR-AMC substrate, pH 6.5
Description: as §1, §2, §3, §4, §5

[4] = target: T1, Cathepsin K (Homo sapiens, UniProt P43235); experiment: Cathepsin K enzymatic assay (assay 1); conditions: human recombinant enzyme, Z-FR-AFC substrate, pH 5.5
T1 sequence (P43235 115-329): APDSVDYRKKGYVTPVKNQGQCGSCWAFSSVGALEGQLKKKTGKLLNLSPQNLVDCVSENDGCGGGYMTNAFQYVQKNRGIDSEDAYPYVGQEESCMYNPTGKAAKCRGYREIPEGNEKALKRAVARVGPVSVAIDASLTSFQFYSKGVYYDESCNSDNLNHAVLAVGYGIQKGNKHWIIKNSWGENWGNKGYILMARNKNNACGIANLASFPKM
Description: as §1, §2, §3, §4, §5

Sequence of Falcipain-3 (Q8IIL0 243-492): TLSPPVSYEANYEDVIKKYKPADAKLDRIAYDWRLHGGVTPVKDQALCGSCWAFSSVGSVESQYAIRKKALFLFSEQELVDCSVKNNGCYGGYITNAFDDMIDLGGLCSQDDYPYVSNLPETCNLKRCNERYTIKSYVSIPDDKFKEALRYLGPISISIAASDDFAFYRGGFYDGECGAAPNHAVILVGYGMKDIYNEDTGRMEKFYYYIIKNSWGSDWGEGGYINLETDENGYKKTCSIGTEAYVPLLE
Sequence of Falcipain-2 (Q8I6U4 244-484): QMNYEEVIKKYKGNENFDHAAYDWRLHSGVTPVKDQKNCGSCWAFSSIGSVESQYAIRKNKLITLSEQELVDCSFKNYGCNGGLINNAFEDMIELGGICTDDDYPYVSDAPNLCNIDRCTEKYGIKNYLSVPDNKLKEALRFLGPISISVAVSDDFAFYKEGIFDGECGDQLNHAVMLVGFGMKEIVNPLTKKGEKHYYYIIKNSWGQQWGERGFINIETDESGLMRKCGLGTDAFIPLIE
Sequence of Cathepsin S (P25774 115-331): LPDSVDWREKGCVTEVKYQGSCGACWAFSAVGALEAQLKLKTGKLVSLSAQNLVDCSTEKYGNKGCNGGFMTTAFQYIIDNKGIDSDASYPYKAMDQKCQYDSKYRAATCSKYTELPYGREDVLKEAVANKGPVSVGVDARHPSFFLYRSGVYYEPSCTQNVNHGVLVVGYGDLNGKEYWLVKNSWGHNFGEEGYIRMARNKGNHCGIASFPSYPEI

## CN1CCC(CN2CCN(Cc3cccc(C(=O)NN(c4nc(C#N)ncc4Br)C4CCCCC4)c3)CC2)CC1 [Example 28, N′-(5-bromo-2-cyano-4-pyrimidinyl)-N′-cyclohexyl-3-({4-[(1-methyl-4-piperidinyl)methyl]-1-piperazinyl}methyl)benzohydrazide trifluoroacetate]
[1]
  IC50: < 1 nM
[2]
  IC50: 2.5 to 15 nM
[3]
  IC50: < 1000 nM

## CN1CCN(C(=O)C2CCN(Cc3ccc(C(=O)NN(c4nc(C#N)ncc4Cl)C4CCOCC4)cc3)CC2)CC1 [Example 36, N′-(5-Chloro-2-cyano-4-pyrimidinyl)-4-({4-[(4-methyl-1-piperazinyl)carbonyl]-1-piperidinyl}methyl)-N′-(tetrahydro-2H-pyran-4-yl)benzohydrazide trifluoroacetate]
[1]; parasitic recombinant enzyme, H-D-VLR-AFC substrate, pH 5.5, endpoint read, read-out: Falcipain-2 IC50
  IC50: < 1 nM
[2]
  IC50: 15 to 150 nM
[4]
  IC50: < 17 nM

## CC(=O)N1CCC(N(NC(=O)c2ccc(CN3CCC(N4CCN(C)CC4)CC3)cc2)c2nc(C#N)ncc2Br)CC1 [Example 38, N′-(1-acetyl-4-piperidinyl)-N′-(5-bromo-2-cyano-4-pyrimidinyl)-4-{[4-(4-methyl-1-piperazinyl)-1-piperidinyl]methyl}benzohydrazide trifluoroacetate]
[1]
  IC50: < 1 nM
[2]; parasitic recombinant enzyme, H-D-VLR-AFC substrate, pH 5.5, endpoint read, read-out: Falcipain-3 IC50
  IC50: 2.5 to 15 nM
[3]
  IC50: < 200 nM

## CN1CCN(c2ccc(C(=O)NN(c3nc(C#N)ncc3Cl)C3CCCC3)cc2)CC1 [Example 52, N′-(5-chloro-2-cyano-4-pyrimidinyl)-N′-cyclopentyl-4-(4-methyl-1-piperazinyl)benzohydrazide trifluoroacetate]
[1]
  IC50: < 1 nM
[2]
  IC50: 2.5 to 15 nM
[3]
  IC50: < 200 nM

## CN(Cc1ccc(C(=O)NN(c2nc(C#N)ncc2Cl)C2CCCC2)cc1)C1CCCCC1 [Example 53, N′-(5-chloro-2-cyano-4-pyrimidinyl)-4-{[cyclohexyl(methyl)amino]methyl}-N′-cyclopentylbenzohydrazide trifluoroacetate]
[1]
  IC50: < 1 nM
[2]
  IC50: 2.5 to 15 nM
[3]
  IC50: < 200 nM

## CN(C)Cc1ccc(C(=O)NN(c2nc(C#N)ncc2Cl)C2CCCC2)cc1 [Example 54, N′-(5-chloro-2-cyano-4-pyrimidinyl)-N′-cyclopentyl-4-[(dimethylamino)methyl]benzohydrazide trifluoroacetate]
[1]
  IC50: < 1 nM
[2]
  IC50: 2.5 to 15 nM
[3]
  IC50: < 200 nM

## CCCN(C)Cc1ccc(C(=O)NN(c2nc(C#N)ncc2Cl)C2CCCC2)cc1 [Example 55, N′-(5-chloro-2-cyano-4-pyrimidinyl)-N′-cyclopentyl-4-{[methyl(propyl)amino]methyl}benzohydrazide trifluoroacetate]
[1]
  IC50: < 1 nM
[2]
  IC50: 2.5 to 15 nM
[3]
  IC50: < 200 nM

## CCCCCCN(C)Cc1ccc(C(=O)NN(c2nc(C#N)ncc2Cl)C2CCCC2)cc1 [Example 56, N′-(5-chloro-2-cyano-4-pyrimidinyl)-N′-cyclopentyl-4-{([hexyl(methyl)amino]methyl}benzohydrazide trifluoroacetate]
[1]
  IC50: < 1 nM
[2]
  IC50: 2.5 to 15 nM
[3]
  IC50: < 200 nM

## CCCCN(C)Cc1ccc(C(=O)NN(c2nc(C#N)ncc2Cl)C2CCCC2)cc1 [Example 57, 4-{[butyl(methyl)amino]methyl}-N′-(5-chloro-2-cyano-4-pyrimidinyl)-N′-cyclopentylbenzohydrazide trifluoroacetate]
[1]
  IC50: < 1 nM
[2]
  IC50: 2.5 to 15 nM
[3]
  IC50: < 200 nM

## CN(CCC(O)c1ccccc1)Cc1ccc(C(=O)NN(c2nc(C#N)ncc2Cl)C2CCCC2)cc1 (stereo not drawn) [Example 59, N′-(5-chloro-2-cyano-4-pyrimidinyl)-N′-cyclopentyl-4-{[(3-hydroxy-3-phenylpropyl)(methyl)amino]methyl}benzohydrazide trifluoroacetate]
[1]
  IC50: < 1 nM
[2]
  IC50: 1 to 2.5 nM
[3]
  IC50: < 200 nM

## CN(CC(=O)N(C)C)Cc1ccc(C(=O)NN(c2nc(C#N)ncc2Cl)C2CCCC2)cc1 [Example 60, N^2-[(4-{[2-(5-chloro-2-cyano-4-pyrimidinyl)-2-cyclopentylhydrazino]carbonyl}phenyl)methyl]-N^1,N^1,N^2-trimethylglycinamide trifluoroacetate]
[1]
  IC50: < 1 nM
[2]
  IC50: 2.5 to 15 nM
[3]
  IC50: < 200 nM

## CN(CCC1OCCO1)Cc1ccc(C(=O)NN(c2nc(C#N)ncc2Cl)C2CCCC2)cc1 [Example 61, N′-(5-chloro-2-cyano-4-pyrimidinyl)-N′-cyclopentyl-4-{[[2-(1,3-dioxolan-2-yl)ethyl](methyl)amino]methyl}benzohydrazide trifluoroacetate]
[1]
  IC50: < 1 nM
[2]
  IC50: 2.5 to 15 nM
[3]
  IC50: < 200 nM

## CN(CCc1ccccc1)Cc1ccc(C(=O)NN(c2nc(C#N)ncc2Cl)C2CCCC2)cc1 [Example 62, N′-(5-chloro-2-cyano-4-pyrimidinyl)-N′-cyclopentyl-4-{[methyl(2-phenylethyl)amino]methyl}benzohydrazide trifluoroacetate]
[1]
  IC50: < 1 nM
[2]
  IC50: 2.5 to 15 nM
[3]
  IC50: < 200 nM

## CN(CCCc1ccccc1)Cc1ccc(C(=O)NN(c2nc(C#N)ncc2Cl)C2CCCC2)cc1 [Example 64, N′-(5-chloro-2-cyano-4-pyrimidinyl)-N′-cyclopentyl-4-{[methyl(3-phenylpropyl)amino]methyl}benzohydrazide trifluoroacetate]
[1]
  IC50: < 1 nM
[2]
  IC50: 2.5 to 15 nM
[3]
  IC50: < 200 nM

## CN(Cc1ccc(C(=O)NN(c2nc(C#N)ncc2Cl)C2CCCC2)cc1)C1CCC2(CC1)OCC(C)(C)CO2 [Example 65, N′-(5-chloro-2-cyano-4-pyrimidinyl)-N′-cyclopentyl-4-{[(3,3-dimethyl-1,5-dioxaspiro[5.5]undec-9-yl)(methyl)amino]methyl}benzohydrazide trifluoroacetate]
[1]
  IC50: 1 to 2.5 nM
[2]
  IC50: 2.5 to 15 nM
[3]
  IC50: < 200 nM

## CCN(CC)Cc1ccc(C(=O)NN(c2nc(C#N)ncc2Cl)C2CCCC2)cc1 [Example 66, N′-(5-chloro-2-cyano-4-pyrimidinyl)-N′-cyclopentyl-4-[(diethylamino)methyl]benzohydrazide trifluoroacetate]
[1]
  IC50: < 1 nM
[2]
  IC50: 2.5 to 15 nM
[3]
  IC50: < 200 nM

## CCN(Cc1ccc(C(=O)NN(c2nc(C#N)ncc2Cl)C2CCCC2)cc1)C1CCCCC1 [Example 69, N′-(5-chloro-2-cyano-4-pyrimidinyl)-4{[cyclohexyl(ethyl)amino]methyl}-N′-cyclopentylbenzohydrazide trifluoroacetate]
[1]
  IC50: < 1 nM
[2]
  IC50: 2.5 to 15 nM
[3]
  IC50: < 200 nM

## N#Cc1ncc(Cl)c(N(NC(=O)c2ccc(CN3CCC(O)CC3)cc2)C2CCCC2)n1 [Example 70, N′-(5-chloro-2-cyano-4-pyrimidinyl)-N′-cyclopentyl-4-[(4-hydroxy-1-piperidinyl)methyl]benzohydrazide trifluoroacetate]
[1]
  IC50: < 1 nM
[2]
  IC50: 2.5 to 15 nM
[3]
  IC50: < 200 nM

## CN(Cc1ccc(C(=O)NN(c2nc(C#N)ncc2Cl)C2CCCC2)cc1)C(C)(C)Cc1ccccc1 [Example 71, N′-(5-chloro-2-cyano-4-pyrimidinyl)-N′-cyclopentyl-4-{[(1,1-dimethyl-2-phenylethyl)(methyl)amino]methyl}benzohydrazide trifluoroacetate]
[1]
  IC50: < 1 nM
[2]
  IC50: 2.5 to 15 nM
[3]
  IC50: < 200 nM

## CC(C)N(Cc1ccc(C(=O)NN(c2nc(C#N)ncc2Cl)C2CCCC2)cc1)C(C)C [Example 72, 4-{[bis(1-methylethyl)amino]methyl}-N′-(5-chloro-2-cyano-4-pyrimidinyl)-N′-cyclopentylbenzohydrazide trifluoroacetate]
[1]
  IC50: < 1 nM
[2]
  IC50: 2.5 to 15 nM
[3]
  IC50: < 200 nM

Reference: patent US20100009956A1, “NOVEL SUBSTITUTED PYRIMIDINES AS CYSTEINE PROTEASE INHIBITORS” (Glaxo Group Limited , a corporation, priority 2006, published 2010)
